The test system of one assay is β-D-galactosidase. As to the kind of experiment: Glycosidase inhibition: β-D-galactosidase. In kind it is biochemical, Bovine liver. Particulars: 1 mg/ml; pH 7.3, 20° C. As for the experimental part: (§1) Inhibition of the N-linked glycan trimming enzymes alpha-Glucosidases I and II or alpha-Mannosidases I and II are thought to be related to the anti-viral activity of castanospermine (Compound 104) and 1-deoxynojirimycin (Compound 193). […] All enzymes were purchased from Sigma, as were the appropriate p-nitrophenyl substrates. Assays were carried out in microtitre plates. Enzymes were assayed in 0.1M citric acid/0.2M di-sodium hydrogen phosphate (McIlvaine) buffers at the optimum pH for the enzyme. All assays were carried out at 20° C. For screening assays the incubation assay consisted of 10 μl of enzyme solution, 10 μl of inhibitor solution (made up in water at 5 mM) and 50 μl of the appropriate 5 mM p-nitrophenyl substrate (3.57 mM final conc.) made up in McIlvaine buffer at the optimum pH for the enzyme.
(§2) The reactions were stopped with 0.4M glycine (pH 10.4) during the exponential phase of the reaction, which was determined at the beginning of the assay using blanks with water, which were incubated for a range of time periods to measure the reaction rate using 5 mM substrate solution. Endpoint absorbances were read at 405 nm with a Bio-rad microtitre plate reader (Benchmark). Water was substituted for the inhibitors in the blanks.
T1 sequence (Q653V7 34-885): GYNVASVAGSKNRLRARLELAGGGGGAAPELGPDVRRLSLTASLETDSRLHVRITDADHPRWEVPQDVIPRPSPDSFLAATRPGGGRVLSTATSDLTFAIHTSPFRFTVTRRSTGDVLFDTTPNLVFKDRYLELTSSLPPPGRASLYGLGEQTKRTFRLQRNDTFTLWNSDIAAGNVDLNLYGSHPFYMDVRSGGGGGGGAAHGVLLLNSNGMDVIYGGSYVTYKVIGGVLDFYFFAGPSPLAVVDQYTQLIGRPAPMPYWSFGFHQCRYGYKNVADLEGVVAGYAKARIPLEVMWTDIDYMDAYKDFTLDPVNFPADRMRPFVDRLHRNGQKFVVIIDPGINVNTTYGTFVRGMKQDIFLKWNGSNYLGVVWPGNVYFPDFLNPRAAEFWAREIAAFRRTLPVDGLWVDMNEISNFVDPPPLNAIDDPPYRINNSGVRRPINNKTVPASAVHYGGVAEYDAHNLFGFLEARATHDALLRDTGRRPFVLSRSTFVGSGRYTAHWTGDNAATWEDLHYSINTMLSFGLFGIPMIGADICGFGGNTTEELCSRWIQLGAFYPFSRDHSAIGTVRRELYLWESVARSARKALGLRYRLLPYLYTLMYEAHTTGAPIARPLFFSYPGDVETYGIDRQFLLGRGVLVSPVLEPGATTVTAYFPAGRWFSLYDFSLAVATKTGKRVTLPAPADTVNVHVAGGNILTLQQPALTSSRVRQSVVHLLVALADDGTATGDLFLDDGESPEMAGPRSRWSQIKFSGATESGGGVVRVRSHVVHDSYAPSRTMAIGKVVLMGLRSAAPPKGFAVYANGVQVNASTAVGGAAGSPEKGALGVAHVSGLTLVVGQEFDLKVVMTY
`OC[C@@H]1NC[C@H](O)[C@@H]1O` [Compound 167, (2S,3R,4S)-2-(hydroxymethyl)pyrrolidine-3,4-diol]: the “% inhibition β-galactosidase” value was determined as 0%.
The same measure, in the same setting: in the case of `CC(O)[C@H](O)[C@H]1N[C@H](CO)[C@@H](O)[C@@H]1O` (stereo partly drawn) [Compound 63, (2R,3R,4R,5R)-2-((1R)-1,2-dihydroxypropyl)-5-(hydroxymethyl)pyrrolidine-3,4-diol] it was 93%; in that of `O[C@H]1[C@H](O)[C@@H](O)CN2CC[C@H](O)[C@H]12` [Compound 104, Castanospermine, reference compound], 16%; in that of `CC[C@@H](O)[C@H]1N[C@H](CO)[C@@H](O)[C@@H]1O` [Compound 62, (2R,3R,4R,5R)-2-(hydroxymethyl)-5-((R)-1-hydroxypropyl)pyrrolidine-3,4-diol], 100%.
Still for that read-out and setting: the figure for `CC[C@@H]1N[C@@H](CO)[C@H](O)[C@@H](O)[C@@H]1O` [Compound 23, (2S,3R,4S,5S,6S)-2-ethyl-6-(hydroxymethyl)piperidine-3,4,5-triol] is 53%.

A further assay addresses T1, α-D-glucosidase (Oryza sativa subsp. japonica, UniProt Q653V7).
T1 construct: purchased Sigma
As to the kind of experiment: Glycosidase inhibition: α-D-glucosidase (rice). In kind it is biochemical, rice (Oryza sativa). Particulars: 1 mg/ml; pH 6.0, 20° C; read-out: % inhibition α-gluc (rice). As for the experimental part:
as §1, §2
`OC[C@@H]1NC[C@H](O)[C@@H]1O` [Compound 167, (2S,3R,4S)-2-(hydroxymethyl)pyrrolidine-3,4-diol]: the inhibition at 1000 µg/mL turned out to be 58%.
Same read-out and setting: in the case of `CC(O)[C@H](O)[C@H]1N[C@H](CO)[C@@H](O)[C@@H]1O` (stereo partly drawn) [Compound 63, (2R,3R,4R,5R)-2-((1R)-1,2-dihydroxypropyl)-5-(hydroxymethyl)pyrrolidine-3,4-diol] it was 41%; in that of `O[C@H]1[C@H](O)[C@@H](O)CN2CC[C@H](O)[C@H]12` [Compound 104, Castanospermine, reference compound], 90%; in that of `CC[C@@H](O)[C@H]1N[C@H](CO)[C@@H](O)[C@@H]1O` [Compound 62, (2R,3R,4R,5R)-2-(hydroxymethyl)-5-((R)-1-hydroxypropyl)pyrrolidine-3,4-diol], 32%.
Take `CC[C@@H]1N[C@@H](CO)[C@H](O)[C@@H](O)[C@@H]1O` [Compound 23, (2S,3R,4S,5S,6S)-2-ethyl-6-(hydroxymethyl)piperidine-3,4,5-triol]: the inhibition at 1000 µg/mL worked out at 66%.

A further assay relates to Naringinase. Nature of the assay: Glycosidase inhibition: Naringinase. In kind it is biochemical, Penecillium decumbens. Particulars: 1 mg/ml; pH 4.0, 20° C. The procedure: as §1, §2
In the case of `OC[C@@H]1NC[C@H](O)[C@@H]1O` [Compound 167, (2S,3R,4S)-2-(hydroxymethyl)pyrrolidine-3,4-diol], the “% inhibition Naringinase” value worked out at 50%.
For the molecule `CC(O)[C@H](O)[C@H]1N[C@H](CO)[C@@H](O)[C@@H]1O` (stereo partly drawn) [Compound 63, (2R,3R,4R,5R)-2-((1R)-1,2-dihydroxypropyl)-5-(hydroxymethyl)pyrrolidine-3,4-diol], the “% inhibition Naringinase” value was 0%.
`O[C@H]1[C@H](O)[C@@H](O)CN2CC[C@H](O)[C@H]12` [Compound 104, Castanospermine, reference compound]: the “% inhibition Naringinase” value stood at 39%.
As for `CC[C@@H](O)[C@H]1N[C@H](CO)[C@@H](O)[C@@H]1O` [Compound 62, (2R,3R,4R,5R)-2-(hydroxymethyl)-5-((R)-1-hydroxypropyl)pyrrolidine-3,4-diol], the “% inhibition Naringinase” value came to 37%.
Still for that read-out and setting: the figure for `CC[C@@H]1N[C@@H](CO)[C@H](O)[C@@H](O)[C@@H]1O` [Compound 23, (2S,3R,4S,5S,6S)-2-ethyl-6-(hydroxymethyl)piperidine-3,4,5-triol] is 0%.

Another assay concerns the target T2, α-L-fucosidase (Bos taurus, UniProt Q2KIM0).
T2 construct: purchased Sigma; host or cells: bovine kidney
T2 sequence (Q2KIM0 23-468): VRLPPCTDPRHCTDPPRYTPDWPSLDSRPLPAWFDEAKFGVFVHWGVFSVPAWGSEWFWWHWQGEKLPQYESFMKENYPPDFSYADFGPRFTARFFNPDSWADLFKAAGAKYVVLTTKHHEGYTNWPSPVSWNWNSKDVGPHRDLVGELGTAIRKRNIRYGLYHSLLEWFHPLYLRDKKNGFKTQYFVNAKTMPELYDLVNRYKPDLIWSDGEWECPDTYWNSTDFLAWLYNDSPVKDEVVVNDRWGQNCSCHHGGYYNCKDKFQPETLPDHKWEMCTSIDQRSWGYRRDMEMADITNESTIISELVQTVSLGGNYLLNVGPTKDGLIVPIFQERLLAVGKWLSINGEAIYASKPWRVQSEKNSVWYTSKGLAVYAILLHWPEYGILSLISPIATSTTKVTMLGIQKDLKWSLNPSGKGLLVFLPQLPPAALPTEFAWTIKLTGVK
As to the kind of experiment: Glycosidase inhibition: α-L-fucosidase. In kind it is biochemical, Bovine kidney. Particulars: 1 mg/ml; pH 5.5, 20° C. As for the experimental part:
All enzymes were purchased from Sigma, as were the appropriate p-nitrophenyl substrates. Assays were carried out in microtitre plates. Enzymes were assayed in 0.1M citric acid/0.2M di-sodium hydrogen phosphate (McIlvaine) buffers at the optimum pH for the enzyme. All assays were carried out at 20° C. For screening assays the incubation assay consisted of 10 μl of enzyme solution, 10 μl of inhibitor solution (made up in water at 5 mM) and 50 μl of the appropriate 5 mM p-nitrophenyl substrate (3.57 mM final conc.) made up in McIlvaine buffer at the optimum pH for the enzyme.
as §2
For `OC[C@@H]1NC[C@H](O)[C@@H]1O` [Compound 167, (2S,3R,4S)-2-(hydroxymethyl)pyrrolidine-3,4-diol], the inhibition at 1000 µg/mL was determined as 28%.
As to `CC(O)[C@H](O)[C@H]1N[C@H](CO)[C@@H](O)[C@@H]1O` (stereo partly drawn) [Compound 63, (2R,3R,4R,5R)-2-((1R)-1,2-dihydroxypropyl)-5-(hydroxymethyl)pyrrolidine-3,4-diol], 1000 µg/mL produced 0% inhibition.
In turn, `O[C@H]1[C@H](O)[C@@H](O)CN2CC[C@H](O)[C@H]12` [Compound 104, Castanospermine, reference compound] returned an inhibition at 1000 µg/mL of 0%.
Take `CC[C@@H](O)[C@H]1N[C@H](CO)[C@@H](O)[C@@H]1O` [Compound 62, (2R,3R,4R,5R)-2-(hydroxymethyl)-5-((R)-1-hydroxypropyl)pyrrolidine-3,4-diol]: 1000 µg/mL produced 0% inhibition.
Still for that read-out and setting: in the case of `CC[C@@H]1N[C@@H](CO)[C@H](O)[C@@H](O)[C@@H]1O` [Compound 23, (2S,3R,4S,5S,6S)-2-ethyl-6-(hydroxymethyl)piperidine-3,4,5-triol] it was 0%.

For another assay, the system named is β-D-glucosidase. As to the kind of experiment: Glycosidase inhibition: β-D-glucosidase. Conditions: 1 mg/ml; pH 5.0, 20° C. In kind it is biochemical, Almonds (Prunus sp.). As for the experimental part: as §1, §2
With `OC[C@@H]1NC[C@H](O)[C@@H]1O` [Compound 167, (2S,3R,4S)-2-(hydroxymethyl)pyrrolidine-3,4-diol], the “% inhibition β-glucosidase” value is 22%.
On the same count and under the same terms, the figure for `CC(O)[C@H](O)[C@H]1N[C@H](CO)[C@@H](O)[C@@H]1O` (stereo partly drawn) [Compound 63, (2R,3R,4R,5R)-2-((1R)-1,2-dihydroxypropyl)-5-(hydroxymethyl)pyrrolidine-3,4-diol] is 93%; for `O[C@H]1[C@H](O)[C@@H](O)CN2CC[C@H](O)[C@H]12` [Compound 104, Castanospermine, reference compound] it is 88%.
For `CC[C@@H](O)[C@H]1N[C@H](CO)[C@@H](O)[C@@H]1O` [Compound 62, (2R,3R,4R,5R)-2-(hydroxymethyl)-5-((R)-1-hydroxypropyl)pyrrolidine-3,4-diol], the “% inhibition β-glucosidase” value is 100%.
In the case of `CC[C@@H]1N[C@@H](CO)[C@H](O)[C@@H](O)[C@@H]1O` [Compound 23, (2S,3R,4S,5S,6S)-2-ethyl-6-(hydroxymethyl)piperidine-3,4,5-triol], the “% inhibition β-glucosidase” value worked out at 28%.

For a further assay, the target named is T3, α-D-glucosidase (Saccharomyces cerevisiae, UniProt P53341).
T3 construct: purchased Sigma
T3 sequence (P53341 whole entry): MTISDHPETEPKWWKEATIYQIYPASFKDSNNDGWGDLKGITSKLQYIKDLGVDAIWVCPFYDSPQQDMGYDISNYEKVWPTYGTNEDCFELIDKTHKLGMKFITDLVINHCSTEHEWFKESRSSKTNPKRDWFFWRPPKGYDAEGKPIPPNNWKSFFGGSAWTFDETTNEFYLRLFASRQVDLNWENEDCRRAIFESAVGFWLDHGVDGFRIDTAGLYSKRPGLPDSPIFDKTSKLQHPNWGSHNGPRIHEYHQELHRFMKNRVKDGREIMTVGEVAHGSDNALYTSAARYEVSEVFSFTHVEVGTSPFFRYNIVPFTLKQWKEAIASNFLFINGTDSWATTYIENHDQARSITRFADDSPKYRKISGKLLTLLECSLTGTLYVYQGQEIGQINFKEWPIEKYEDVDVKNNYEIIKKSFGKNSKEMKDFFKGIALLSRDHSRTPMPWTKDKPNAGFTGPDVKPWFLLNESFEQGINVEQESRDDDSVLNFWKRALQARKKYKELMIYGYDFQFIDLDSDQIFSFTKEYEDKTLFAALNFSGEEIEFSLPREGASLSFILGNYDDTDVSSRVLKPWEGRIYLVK
Nature of the assay: Glycosidase inhibition: α-D-glucosidase (yeast). In kind it is biochemical, Saccharomyces cerevisiae (Baker's yeast). Particulars: 1 mg/ml; pH 6.0, 20° C; read-out: % inhibition α-gluc (yeast). As for the experimental part: as §1, §2
As for `OC[C@@H]1NC[C@H](O)[C@@H]1O` [Compound 167, (2S,3R,4S)-2-(hydroxymethyl)pyrrolidine-3,4-diol], the inhibition at 1000 µg/mL was 0%.
`CC(O)[C@H](O)[C@H]1N[C@H](CO)[C@@H](O)[C@@H]1O` (stereo partly drawn) [Compound 63, (2R,3R,4R,5R)-2-((1R)-1,2-dihydroxypropyl)-5-(hydroxymethyl)pyrrolidine-3,4-diol]: the inhibition at 1000 µg/mL turned out to be 0%.
On to `O[C@H]1[C@H](O)[C@@H](O)CN2CC[C@H](O)[C@H]12` [Compound 104, Castanospermine, reference compound], for which the inhibition at 1000 µg/mL stood at 0%.
For the molecule `CC[C@@H](O)[C@H]1N[C@H](CO)[C@@H](O)[C@@H]1O` [Compound 62, (2R,3R,4R,5R)-2-(hydroxymethyl)-5-((R)-1-hydroxypropyl)pyrrolidine-3,4-diol], the inhibition at 1000 µg/mL was found to be 0%.
Consider `CC[C@@H]1N[C@@H](CO)[C@H](O)[C@@H](O)[C@@H]1O` [Compound 23, (2S,3R,4S,5S,6S)-2-ethyl-6-(hydroxymethyl)piperidine-3,4,5-triol], for which the inhibition at 1000 µg/mL was found to be 0%.

What is called inhibition is the change of the read-out against control, counted positive when it falls.
